Data as given in ChEMBL document CHEMBL4765299 (Eur J Med Chem, 2020).
The source made the active and inactive calls. The calls are words filed in the database; no cut-off is given here.

How the values were obtained:
[1] = against A against n against t against i against p against r against o against l against i against f against e against r against a against t against i against v against e against a against c against t against i against v against i against t against y against a against g against a against i against n against s against t against h against u against m against a against n against K against 5 against 6 against 2 against c against e against l against l against s against a against s against s against e against s against s against e against d against a against s against r against e against d against u against c against t against i against o against n against i against n against c against e against l against l against v against i against a against b against i against l against i against t against y against m against e against a against s against u against r against e against d against a against f against t against e against r against 7 against 2 against h against r against s against b against y against M against T against T against a against s against s against a against y against; assay type: functional, tissue-based, Homo sapiens; conditions: k562
[2] = against A against n against t against i against p against r against o against l against i against f against e against r against a against t against i against v against e against a against c against t against i against v against i against t against y against a against g against a against i against n against s against t against h against u against m against a against n against M against D against A against - against M against B against - against 2 against 3 against 1 against c against e against l against l against s against a against s against s against e against s against s against e against d against a against s against r against e against d against u against c against t against i against o against n against i against n against c against e against l against l against v against i against a against b against i against l against i against t against y against m against e against a against s against u against r against e against d against a against f against t against e against r against 7 against 2 against h against r against s against b against y against M against T against T against a against s against s against a against y against; assay type: functional, tissue-based, Homo sapiens; conditions: mda-mb-231
[3] = against A against n against t against i against p against r against o against l against i against f against e against r against a against t against i against v against e against a against c against t against i against v against i against t against y against a against g against a against i against n against s against t against h against u against m against a against n against H against C against T against - against 8 against c against e against l against l against s against a against s against s against e against s against s against e against d against a against s against r against e against d against u against c against t against i against o against n against i against n against c against e against l against l against v against i against a against b against i against l against i against t against y against m against e against a against s against u against r against e against d against a against f against t against e against r against 7 against 2 against h against r against s against b against y against M against T against T against a against s against s against a against y against; assay type: functional, tissue-based, Homo sapiens; conditions: hct-8
[4] = against C against y against t against o against t against o against x against i against c against i against t against y against a against g against a against i against n against s against t against h against u against m against a against n against H against F against L against - against 1 against c against e against l against l against s against a against s against s against e against s against s against e against d against a against s against r against e against d against u against c against t against i against o against n against i against n against c against e against l against l against v against i against a against b against i against l against i against t against y against m against e against a against s against u against r against e against d against a against f against t against e against r against 7 against 2 against h against r against s against b against y against M against T against T against a against s against s against a against y against; assay type: ADME, tissue-based; conditions: Homo sapiens, HFL1
[5] = tested on: HepG2; assay: Antiproliferative against human HepG2 cells assessed as reduction in cell viability measured after 72 hrs by MTT assay; assay type: functional, cell-based; conditions: HepG2, 72 h
[6] = species on record: Sus scrofa; assay: Induction of porcine brain tubulin polymerization assessed as induction of microtubule assembly by measuring increase in absorbance at 10 uM measured for 60 mins by fluorescence based analysis; assay type: tissue-based
[7] = tested on: H22; assay: Antiproliferative activity against mouse H22 cells assessed as inhibition of cell growth by MTT assay; assay type: functional, cell-based
[8] = tested on: H22; assay: Anti-tumor activity against mouse H22 cells allografted in ICR mice assessed as reduction in tumor weight at 6 mg/kg, iv administered every 2 days for 21 days; assay type: functional; conditions: 504 h, time 21 day
[9] = tested on: K562; assay: Induction of cell cycle arrest in human K562 cells assessed as accumulation at S phase at 3 nM incubated for 48 hrs by propidium iodide/RNase staining based flow cytometry (reference value: 53.42%); assay type: functional
[10] = tested on: K562; assay: Induction of cell cycle arrest in human K562 cells assessed as accumulation at G2/M phase at 3 nM incubated for 48 hrs by propidium iodide/RNase staining based flow cytometry (reference value: 7.83%); assay type: functional
[11] = tested on: K562; assay: Induction of cell cycle arrest in human K562 cells assessed as accumulation at G1 phase at 3 nM incubated for 48 hrs by propidium iodide/RNase staining based flow cytometry (reference value: 38.75%); assay type: functional
[12] = species on record: Sus scrofa; assay: Displacement of [3H]colchicine from porcine brain tubulin at 5 uM incubated for 2 hrs by TopCount scintillation counting method relative to control; assay type: tissue-based
[13] = tested on: K562; assay: Induction of cell cycle arrest in human K562 cells assessed as accumulation at G1 phase at 12 nM incubated for 48 hrs by propidium iodide/RNase staining based flow cytometry (reference value: 38.75%); assay type: functional
[14] = tested on: K562; assay: Induction of cell cycle arrest in human K562 cells assessed as accumulation at G2/M phase at 12 nM incubated for 48 hrs by propidium iodide/RNase staining based flow cytometry (reference value: 7.83%); assay type: functional
[15] = tested on: K562; assay: Induction of cell cycle arrest in human K562 cells assessed as accumulation at G2/M phase at 6 nM incubated for 48 hrs by propidium iodide/RNase staining based flow cytometry (reference value: 7.83%); assay type: functional
[16] = species on record: Sus scrofa; assay: Displacement of [3H]colchicine from porcine brain tubulin at 1 uM incubated for 2 hrs by TopCount scintillation counting method relative to control; assay type: tissue-based
[17] = tested on: H22; assay: Anti-tumor activity against mouse H22 cells allografted in ICR mice assessed as reduction in tumor weight at 15 mg/kg, iv administered daily for 21 days; assay type: functional; conditions: 504 h, time 21 day
[18] = tested on: K562; assay: Induction of cell cycle arrest in human K562 cells assessed as accumulation at S phase at 12 nM incubated for 48 hrs by propidium iodide/RNase staining based flow cytometry (reference value: 53.42%); assay type: functional
[19] = tested on: K562; assay: Induction of cell cycle arrest in human K562 cells assessed as accumulation at G1 phase at 6 nM incubated for 48 hrs by propidium iodide/RNase staining based flow cytometry (reference value: 38.75%); assay type: functional
[20] = Inhibition of porcine brain tubulin polymerization assessed as inhibition of microtubule assembly by measuring decrease in absorbance measured for 60 mins by fluorescence based analysis; assay type: tissue-based, Sus scrofa
[21] = tested on: H22; assay: Anti-tumor activity against mouse H22 cells allografted in ICR mice assessed as reduction in tumor weight at 30 mg/kg, iv administered daily for 21 days; assay type: functional; conditions: 504 h, time 21 day
[22] = tested on: K562; assay: Induction of cell cycle arrest in human K562 cells assessed as accumulation at S phase at 6 nM incubated for 48 hrs by propidium iodide/RNase staining based flow cytometry (reference value: 53.42%); assay type: functional

| SMILES | IC50 [1] [nM] | IC50 [2] [nM] | IC50 [3] [nM] | IC50 [4] [nM] | IC50 [5] [nM] | further results |
| --- | --- | --- | --- | --- | --- | --- |
| C=C(c1cc(OC)nc(OC)c1)c1ccc2c(c1)OCO2 | > 1000 |  |  |  |  |  |
| C=C(c1cc(OC)nc(OC)c1)c1cn(C)c2ccccc12 | > 1000 |  |  |  |  |  |
| C=C(c1cc(OC)nc(OC)c1)c1ccc2[nH]ccc2c1 | > 1000 |  |  |  |  |  |
| C=C(c1cc(OC)nc(OC)c1)c1ccc2c(ccn2C)c1 | 181 | 308 | 288 | 879 | 300 |  |
| C=C(c1cc(OC)nc(OC)c1)c1cccc2c1ccn2C | > 1000 |  |  |  |  |  |
| C=C(c1cc(N2CCOCC2)nc(N2CCOCC2)c1)c1ccc(OC)c(O)c1 | > 1000 |  |  |  |  |  |
| C=C(c1cc(OC)nc(OC)c1)c1cc(OC)c(OC)c(OC)c1 | > 1000 |  |  |  |  |  |
| C=C(c1cc(N2CCCC2)nc(N2CCCC2)c1)c1ccc(OC)c(O)c1 | > 1000 |  |  |  |  |  |
| C=C(c1ccnc(C)c1)c1ccc(OC)c(O)c1 | 24 | 31 | 32 | 189 | 31 |  |
| C=C(c1cc(C)nc(C)c1)c1ccc(OC)c(O)c1 | 12 | 29 | 31 | 86 | 27 |  |
| CC(=O)O[C@H]1C(=O)[C@@]2(C)[C@H]([C@H](OC(=O)c3ccccc3)[C@]3(O)C[C@H](OC(=O)[C@H](O)[C@@H](NC(=O)c4ccccc4)c4ccccc4)C(C)=C1C3(C)C)[C@]1(OC(C)=O)CO[C@@H]1C[C@@H]2O [PACLITAXEL] |  |  |  |  |  | Activity [6]: Active; IC50 [7]: 84 nM; inhibition in vivo at 6 mg/kg [8]: 64.3% |
| C=C(c1cc(OC)nc(OC)c1)c1c[nH]c2ccccc12 | > 1000 |  |  |  |  |  |
| C=C(c1ccncc1)c1ccc(OC)c(O)c1 | 151 | 208 | 222 | 696 | 261 |  |
| C=C(c1cc(OC)nc(OC)c1)c1cccc2[nH]ccc12 | > 1000 |  |  |  |  |  |
| C=C(c1ccc(OC)c(O)c1)c1cc(OC)c(OC)c(OC)c1 | 6 | 12 | 10 | 86 | 10 | Activity [9]: 51.37%; Activity [10]: 11.45%; IC50 [7]: 8 nM; Activity [11]: 37.19%; inhibition [12]: 84.6%; Activity [13]: 36.01%; Activity [14]: 18.44%; Activity [15]: 13.57%; inhibition [16]: 74%; inhibition in vivo at 15 mg/kg/day [17]: 56.6%; Activity [18]: 45.55%; Activity [19]: 38.07%; IC50 [20]: 2370 nM; inhibition in vivo at 30 mg/kg/day [21]: 66.9%; Activity [22]: 48.36% |
| C=C(c1cc(OC)nc(OC)c1)c1ccc(OC)c(O)c1 | 44 | 84 | 86 | 792 | 77 |  |
| C=C(c1cc(C)nc(C)c1)c1ccc2c(ccn2C)c1 | 21 | 34 | 31 | 176 | 30 |  |
| C=C(c1cc(Cl)nc(N2CCNCC2)c1)c1ccc(OC)c(O)c1 | > 1000 |  |  |  |  |  |
| C=C(c1cc(OC)nc(OC)c1)c1c[nH]c2cc(OC)ccc12 | > 1000 |  |  |  |  |  |
| C=C(c1cc(OC)nc(OC)c1)c1cn(C)c2cc(OC)ccc12 | > 1000 |  |  |  |  |  |
| C=C(c1cc(OC)nc(OC)c1)c1ccc(OC)c(OC)c1 | > 1000 |  |  |  |  |  |
| C=C(c1cc(Cl)nc(N(C)C)c1)c1ccc(OC)c(O)c1 | 16 | 29 | 29 | 114 | 27 |  |
